Data on 20 compounds can be found in patent publication US10865208B2, “ATG7 inhibitors and the uses thereof” (Millennium Pharmaceuticals, Inc., priority 2016, dated 2020).

The assay deals with recombinant human His-ATG7 enzyme (Homo sapiens (Human), UniProt O95352). Description: ATG7 Enzyme Assay (HTRF/FRET, ATG3-GST and Flag-Gabarap). It is filed as biochemical. The settings on record: for inhibition at 0.111 µM: Concentration 0.111 μM; for inhibition at 0.123 µM: Concentration 0.123 μM. How it is done:
Example 97: ATG7 Enzyme Assay
The total volume of the ATG7 enzymatic assay is 50 μL and contains 50 mM HEPES Hemisodium (pH 7.5), 0.05% BSA, 0.01% Tween-20, 25 mM NaCl, 5 mM MgCl2, 10 μM ATP, 250 μM GSH, 5 nM ATG3-GST, 5 nM Flag-Gabarap, 100 μM TCEP and 0.15 nM recombinant human His-ATG7 enzyme. The enzymatic reaction mixture, with and without inhibitor, was incubated at 24° C. for 105 min in a 384-well plate before termination with […] of Stop/Detection buffer (0.1M HEPES Hemisodium pH 7.5, 0.05% Tween20, 20 mM EDTA, 410 mM KF, 0.53 nM Europium-Cryptate labeled monoclonal anti-Flag M2 Antibody (CisBio International) and 8.125 μg/ml PHYCOLINK goat anti-GST allophycocyanin (XL-APC) antibody (Prozyme)). After incubation for 2 hours at 24° C., quantification of FRET is performed on the Pherostar™ (BMG Labtech). Percentage inhibition values at a single concentration or enzyme inhibition (IC50) values are determined from those curves. One skilled in the art will appreciate that the values generated either as percentage inhibition at a single concentration or IC50 values are subject to experimental variation.

Each structure is given as a SMILES string.

recombinant human His-ATG7 enzyme, sequence (O95352 whole entry): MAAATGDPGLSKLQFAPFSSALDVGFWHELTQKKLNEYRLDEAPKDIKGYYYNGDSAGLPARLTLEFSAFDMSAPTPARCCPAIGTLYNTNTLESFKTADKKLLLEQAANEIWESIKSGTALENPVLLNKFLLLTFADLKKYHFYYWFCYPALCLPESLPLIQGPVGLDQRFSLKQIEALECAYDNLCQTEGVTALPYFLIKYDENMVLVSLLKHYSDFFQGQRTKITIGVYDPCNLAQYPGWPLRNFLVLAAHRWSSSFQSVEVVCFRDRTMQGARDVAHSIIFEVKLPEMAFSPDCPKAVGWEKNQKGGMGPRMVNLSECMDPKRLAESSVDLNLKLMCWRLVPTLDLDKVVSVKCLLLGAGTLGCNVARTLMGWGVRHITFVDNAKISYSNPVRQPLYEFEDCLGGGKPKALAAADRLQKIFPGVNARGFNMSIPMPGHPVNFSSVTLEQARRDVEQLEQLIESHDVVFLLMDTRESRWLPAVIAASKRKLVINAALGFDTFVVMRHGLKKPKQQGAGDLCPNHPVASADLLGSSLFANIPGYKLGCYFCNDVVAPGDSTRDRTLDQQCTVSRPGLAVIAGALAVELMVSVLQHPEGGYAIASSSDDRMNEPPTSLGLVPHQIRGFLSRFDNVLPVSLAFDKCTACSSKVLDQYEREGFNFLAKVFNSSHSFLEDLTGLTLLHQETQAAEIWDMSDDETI

As a reminder, the IC50 is the point on the concentration scale where inhibition reaches its midpoint. For orientation: inhibition means the percentage by which the read-out fell short of the control. On to `Nc1ncnc2c1c(SCc1cc3ccccc3s1)nn2[C@H]1C[C@H](O)[C@@H](COS(N)(=O)=O)O1` [Compound I-204, [(2R,3S,5R)-5-{4-amino-3-[(1-benzothiophen-2-ylmethyl)sulfanyl]-1H-pyrazolo[3,4-d]pyrimidin-1-yl}-3-hydroxytetrahydrofuran-2-yl]methyl sulfamate], for which the IC50 is 100 to 500 nM. Besides, the inhibition at 0.111 µM (read-out: Percent Inhibition) was 50%.
Regarding `Nc1ncnc2c1c(OC(F)F)nn2[C@@H]1O[C@H](COS(N)(=O)=O)[C@@H](O)[C@H]1O` [Compound I-27, {(2R,3S,4R,5R)-5-[4-amino-3-(difluoromethoxy)-1H-pyrazolo[3,4-d]pyrimidin-1-yl]-3,4-dihydroxytetrahydrofuran-2-yl}methyl Sulfamate], the IC50 lay within 20 to 50 nM. In addition, the inhibition at 0.123 µM (read-out: Percent Inhibition) amounted to 78%.
Consider `Nc1ncnc2c1c(-c1ccccc1)nn2[C@@H]1O[C@H](COS(N)(=O)=O)[C@@H](O)[C@H]1O` [Compound I-49, [(2R,3S,4R,5R)-5-(4-amino-3-phenyl-1H-pyrazolo[3,4-d]pyrimidin-1-yl)-3,4-dihydroxytetrahydrofuran-2-yl]methyl Sulfamate], for which the IC50 is more than 500 nM. Moreover, the inhibition at 0.069 µM (Concentration 0.069 μM, read-out: Percent Inhibition) worked out at 7%.
Take `CC(Sc1nn([C@@H]2O[C@H](COS(N)(=O)=O)[C@@H](O)[C@@H]2F)c2ncnc(N)c12)C1CC1` (mixture of isomers) [Compound I-157, [(2R,3R,4S,5R)-5-(4-amino-3-{[(1R)-1-cyclopropylethyl]sulfanyl}-1H-pyrazolo[3,4-d]pyrimidin-1-yl)-4-fluoro-3-hydroxytetrahydrofuran-2-yl]methyl sulfamate and [(2R,3R,4S,5R)-5-(4-amino-3-{[(1S)-1-cyclopropylethyl]sulfanyl}-1H-pyrazolo[3,4-d]pyrimidin-1-yl)-4-fluoro-3-hydroxytetrahydrofuran-2-yl]methyl sulfamate]: the IC50 was 20 to 50 nM. The inhibition at 0.111 µM (read-out: Percent Inhibition) amounted to 71%.
Consider `Nc1ncnc2c1c(CCc1ccccc1)nn2[C@@H]1O[C@H](COS(N)(=O)=O)[C@@H](O)[C@H]1O` [Compound I-12, {(2R,3S,4R,5R)-5-[4-amino-3-(2-phenylethyl)-1H-pyrazolo[3,4-d]pyrimidin-1-yl]-3,4-dihydroxytetrahydrofuran-2-yl}methyl Sulfamate], for which the IC50 was 100 to 500 nM. In addition, the inhibition at 0.123 µM (read-out: Percent Inhibition) was 20%.
`CC(C)(C)Sc1nn([C@H]2C[C@H](O)[C@@H](COS(N)(=O)=O)O2)c2ncnc(N)c12` [Compound I-177, {(2R,3S,5R)-5-[4-amino-3-(tert-butylsulfanyl)-1H-pyrazolo[3,4-d]pyrimidin-1-yl]-3-hydroxytetrahydrofuran-2-yl}methyl sulfamate]: the IC50 is 20 to 50 nM. In addition, the inhibition at 0.111 µM (read-out: Percent Inhibition) amounted to 70%.
On to `Cn1cc(Sc2nn([C@@H]3O[C@H](COS(N)(=O)=O)[C@@H](O)[C@H]3O)c3ncnc(N)c23)cn1` [Compound I-61, [(2R,3S,4R,5R)-5-{4-amino-3-[(1-methyl-1H-pyrazol-4-yl)sulfanyl]-1H-pyrazolo[3,4-d]pyrimidin-1-yl}-3,4-dihydroxytetrahydrofuran-2-yl]methyl sulfamate], for which the IC50 lay in the range of 20 to 50 nM. Besides, the inhibition at 0.123 µM (read-out: Percent Inhibition) amounted to 83%.
As to `Nc1ncnc2c1c(Sc1cccc(Cl)c1)nn2[C@H]1C[C@H](O)[C@H](COS(N)(=O)=O)O1` [Compound I-224, [(2S,3S,5R)-5-{4-amino-3-[(3-chlorophenyl)sulfanyl]-1H-pyrazolo[3,4-d]pyrimidin-1-yl}-3-hydroxytetrahydrofuran-2-yl]methyl sulfamate], the IC50 lay within 100 to 500 nM. Further, the inhibition at 0.111 µM (read-out: Percent Inhibition) is 39%.
For `Nc1ncnc2c1c(C(F)(F)F)nn2[C@H]1C[C@H](O)[C@H](COS(N)(=O)=O)O1` [Compound I-209, {(2S,3S,5R)-5-[4-amino-3-(trifluoromethyl)-1H-pyrazolo[3,4-d]pyrimidin-1-yl]-3-hydroxytetrahydrofuran-2-yl}methyl Sulfamate] the same measures were 100 to 500 nM and 42%.
On the same counts, the results for `Cc1cccc(Sc2nn([C@@H]3O[C@H](COS(N)(=O)=O)[C@@H](O)[C@H]3O)c3ncnc(N)c23)c1` [Compound I-69, [(2R,3S,4R,5R)-5-{4-amino-3-[(3-methylphenyl)sulfanyl]-1H-pyrazolo[3,4-d]pyrimidin-1-yl}-3,4-dihydroxytetrahydrofuran-2-yl]methyl sulfamate] are less than 20 nM and 86%.
Take `Nc1ncnc2c1c(Sc1ccccn1)nn2[C@H]1C[C@H](O)[C@@H](COS(N)(=O)=O)O1` [Compound I-194, {(2R,3S,5R)-5-[4-amino-3-(pyridin-2-ylsulfanyl)-1H-pyrazolo[3,4-d]pyrimidin-1-yl]-3-hydroxytetrahydrofuran-2-yl}methyl sulfamate]: the IC50 was in the range of 20 to 50 nM. Also, for the setting “read-out: Percent Inhibition”, the inhibition at 0.111 µM was determined as 79%.
Take `Nc1ncnc2c1c(SCC(F)F)nn2[C@H]1C[C@H](O)[C@@H](COS(N)(=O)=O)O1` [Compound I-165, [(2R,3S,5R)-5-{4-amino-3-[(2,2-difluoroethyl)sulfanyl]-1H-pyrazolo[3,4-d]pyrimidin-1-yl}-3-hydroxytetrahydrofuran-2-yl]methyl sulfamate]: the IC50 is 50 to 100 nM. Further, the inhibition at 0.111 µM (read-out: Percent Inhibition) came to 62%.
For `NC(=O)CSc1nn([C@H]2C[C@H](O)[C@@H](COS(N)(=O)=O)O2)c2ncnc(N)c12` [Compound I-159, [(2R,3S,5R)-5-{4-amino-3-[(2-amino-2-oxoethyl)sulfanyl]-1H-pyrazolo[3,4-d]pyrimidin-1-yl}-3-hydroxytetrahydrofuran-2-yl]methyl sulfamate] the same measures were 100 to 500 nM and 29%.
In the case of `Nc1ncnc2c1c(SC(F)F)nn2[C@@H]1O[C@H](COS(N)(=O)=O)[C@@H](O)[C@H]1O` [Compound I-85, [(2R,3S,4R,5R)-5-{4-amino-3-[(difluoromethyl)sulfanyl]-1H-pyrazolo[3,4-d]pyrimidin-1-yl}-3,4-dihydroxytetrahydrofuran-2-yl]methyl sulfamate], the IC50 was 20 to 50 nM. In addition, for the setting “read-out: Percent Inhibition”, the inhibition at 0.123 µM was determined as 77%.
For the compound `Cc1ccc(Sc2nn([C@H]3C[C@H](O)[C@@H](COS(N)(=O)=O)O3)c3ncnc(N)c23)cc1C` [Compound I-196, [(2R,3S,5R)-5-{4-amino-3-[(3,4-dimethylphenyl)sulfanyl]-1H-pyrazolo[3,4-d]pyrimidin-1-yl}-3-hydroxytetrahydrofuran-2-yl]methyl sulfamate], the IC50 lay in the range of 50 to 100 nM. Moreover, the inhibition at 0.111 µM (read-out: Percent Inhibition) is 65%.
For `Nc1ncnc2c1c(Sc1cc(C(F)(F)F)ccn1)nn2[C@@H]1O[C@H](COS(N)(=O)=O)[C@@H](O)[C@@H]1F` [Compound I-117, [(2R,3R,4S,5R)-5-(4-amino-3-{[4-(trifluoromethyl)pyridin-2-yl]sulfanyl}-1H-pyrazolo[3,4-d]pyrimidin-1-yl)-4-fluoro-3-hydroxytetrahydrofuran-2-yl]methyl sulfamate] the same measures were 20 to 50 nM and 83%.
As to `Cc1nn([C@@H]2O[C@H](COS(N)(=O)=O)[C@@H](O)[C@H]2O)c2ncnc(N)c12` [Compound I-2, [(2R,3S,4R,5R)-5-(4-amino-3-methyl-1H-pyrazolo[3,4-d]pyrimidin-1-yl)-3,4-dihydroxytetrahydrofuran-2-yl]methyl Sulfamate], the IC50 is 100 to 500 nM. The inhibition at 0.123 µM (read-out: Percent Inhibition) was found to be 42%.
Consider `Cc1ccc(CSc2nn([C@@H]3O[C@H](COS(N)(=O)=O)[C@@H](O)[C@H]3O)c3ncnc(N)c23)cc1` [Compound I-41, [(2R,3S,4R,5R)-5-{4-amino-3-[(4-methylbenzyl)sulfanyl]-1H-pyrazolo[3,4-d]pyrimidin-1-yl}-3,4-dihydroxytetrahydrofuran-2-yl]methyl sulfamate], for which the IC50 was 20 to 50 nM. The inhibition at 0.111 µM (read-out: Percent Inhibition) stood at 85%.
For `COc1ccc(Sc2nn([C@H]3C[C@H](O)[C@@H](COS(N)(=O)=O)O3)c3ncnc(N)c23)cc1OC` [Compound I-207, [(2R,3S,5R)-5-{4-amino-3-[(3,4-dimethoxyphenyl)sulfanyl]-1H-pyrazolo[3,4-d]pyrimidin-1-yl}-3-hydroxytetrahydrofuran-2-yl]methyl sulfamate] the same measures were 50 to 100 nM and 65%.
For `Nc1ncnc2c1c(SCc1ccncc1)nn2[C@@H]1O[C@H](COS(N)(=O)=O)[C@@H](O)[C@@H]1F` [Compound I-124, [(2R,3R,4S,5R)-5-{4-amino-3-[(pyridin-4-ylmethyl)sulfanyl]-1H-pyrazolo[3,4-d]pyrimidin-1-yl}-4-fluoro-3-hydroxytetrahydrofuran-2-yl]methyl sulfamate] the same measures were 50 to 100 nM and 52%.
